According to US20150079207A1, “Method for manufacturing Smilax China L root extract having increased active ingredients and beverage composition containing the extract fordetoxification” (priority 2013, published 2015):

Key:
Type in all cases: cell-based
HepG2 cells [1] = assay: Protective effect on hepatotoxicity caused by alcohol (MTT assay); settings: 50, 100, 250 μM 2 h, then ethanol at IC50 24 h
Procedure: The MTT assay was generally described with reference to Evaluation Example 2.
Thereafter, the experimental groups and the control were treated with an aqueous solution of ethanol (50%) at an IC50 concentration, and cultured for 24 hours. After the medium was removed, the experimental groups and the control were treated with a 3-4,5 dimethylthiazol-2,5 diphenyltetrazolium bromide (MTT) reagent, and then cultured for 4 hours. Then, the medium was removed, and the experimental groups and the control were treated with a DMSO reagent, and measured for absorbance at a wavelength of 570 nm using a multi-microplate reader (Thermo scientific). Also, the cell viability was calculated using Equation 1.

HepG2 cells [2] = assay: Inhibition of formation of oxidatively damaged adducts caused by alcohol (DCFH-DA assay); settings: 50, 100, 250 μM 2 h, then ethanol at IC50 24 h
Procedure: The DCFH-DA assay was generally described with reference to Evaluation Example 3.
(§1) Thereafter, the experimental groups and the control were treated with ethanol at an IC50 concentration, and cultured for 24 hours. Then, trypsin-EDTA was divided, and the cells were detached, and treated with a 5 μM DCFH-DA reagent. After 30 minutes, the fluorescence was measured at an excitation wavelength of 488 nm and an emission wavelength of 525 nm using a multi-microplate reader (Thermo scientific).

HepG2 cells [3] = assay: Inhibition of formation of oxidatively damaged adducts caused by nicotine (DCFH-DA assay); settings: 50, 100, 250 μM (mixture 50, 100 μM) 2 h, then nicotine at IC50 24 h
Source text: When non-polar, uncharged DCFH-DA easily enters the cytoplasm through cell membranes, DCFH-DA is converted into 2′,7′-dichlorofluorescin (DCFH) showing no fluorescence by an intracellular enzyme, esterase, and DCFH is then oxidized into 2′,7′-dichlorofluorescein (DCF) showing fluorescence by various active oxygen produced in the cells. Since the measured fluorescence intensity is in proportion to a degree of intracellular oxidation, an effect of the index materials on oxidative damage of liver cells by nicotine was evaluated using the principle.
as §1, with “nicotine” for “ethanol”, “Trypsin-EDTA” for “Then, trypsin-EDTA”

HepG2 cells [4] = assay: Conversion rate of nicotine into cotinine (cotinine quantitative assay); settings: HepG2 after 1 mM nicotine; 50, 100, 250 μM (mixture 50, 100 μM); 10-120 min
Procedure: HepG2 (passage #99-100) cells kindly provided from the Korean Cell Line Bank were sub-cultured, divided into a 96 well plate, and then cultured under conditions of 5% CO2 and 37° C. until the cells reached 100% confluence, and the medium was removed. Thereafter, the HepG2 cells were cultured for a day in a medium containing 1 mM nicotine. […] Subsequently, the cultured cells were dividedly treated with trypsin-EDTA, and detached, and centrifuged to collect a cell pellet. The cell pellet was suspended in 100 μl of PBS, and homogenated for 30 seconds using an ultrasonicator. 100 μl of a 4M sodium acetate buffer (pH 4.7), 40 μl of 1.5M potassium cyanide, 40 μl of 0.4M chloramine T, and 200 μl of 78 mM barbituric acid (in acetone/water (50/50)) were sequentially added to the homogenated cells, mixed for 10 seconds, and then reacted at room temperature for 15 minutes. Then, 40 μl of 1M sodium metabisulfite was added to the reaction mixture to stop the reaction. Then, the reaction mixture was measured for absorbance at a wavelength of 490 nm using a multi-microplate reader (Thermo scientific), and the absorbance of the reaction mixture was quantified by comparison to the standard curve of a cotinine sample.

| Compound | absorbance (MTT, cell viability) vs alcohol-only control (HepG2 cells [1]) | relative DCF fluorescence intensity (oxidatively damaged adducts by alcohol) vs alcohol-only control (HepG2 cells [2]) | relative DCF fluorescence intensity (oxidatively damaged adducts by nicotine) vs nicotine-only control (HepG2 cells [3]) | cotinine conversion rate vs nicotine-only control (HepG2 cells [4]) |
| --- | --- | --- | --- | --- |
| Oc1cc(O)cc(/C=C/c2ccc(O)cc2O)c1 [oxyresveratrol] | absorbance increased as the concentration of the index material increased | relative DCF fluorescence intensity tended to decrease | relative DCF fluorescence intensity tended to decrease | cotinine conversion rate increased |
| Oc1ccc(C=Cc2cc(O)cc(O)c2)cc1 [resveratrol] | absorbance increased as the concentration of the index material increased |  |  | cotinine conversion rate increased |
